Data from patent publication US12209087B2, “AKT1 modulators” (Alterome Therapeutics, Inc., priority 2022, dated 2025).

Molecular target: T1, full length AKT E17K (Homo sapiens, UniProt P31749, E17K)
T1 construct: host or cells: HEK-293 (ATCC CRL-1573)
Assay: NanoBRET Target Engagement (TE) Assay
Format: cell-based
Conditions: competitive displacement of tracer in cells, read-out: AKT1 E17K IC50
In short: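 Compound and tracer incubated 2 h before luminescence at donor 450 nm and acceptor 600 nm, with extracellular signal inhibited. EC50 by sigmoidal variable-slope regression.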

T1 sequence (P31749 whole entry E17K): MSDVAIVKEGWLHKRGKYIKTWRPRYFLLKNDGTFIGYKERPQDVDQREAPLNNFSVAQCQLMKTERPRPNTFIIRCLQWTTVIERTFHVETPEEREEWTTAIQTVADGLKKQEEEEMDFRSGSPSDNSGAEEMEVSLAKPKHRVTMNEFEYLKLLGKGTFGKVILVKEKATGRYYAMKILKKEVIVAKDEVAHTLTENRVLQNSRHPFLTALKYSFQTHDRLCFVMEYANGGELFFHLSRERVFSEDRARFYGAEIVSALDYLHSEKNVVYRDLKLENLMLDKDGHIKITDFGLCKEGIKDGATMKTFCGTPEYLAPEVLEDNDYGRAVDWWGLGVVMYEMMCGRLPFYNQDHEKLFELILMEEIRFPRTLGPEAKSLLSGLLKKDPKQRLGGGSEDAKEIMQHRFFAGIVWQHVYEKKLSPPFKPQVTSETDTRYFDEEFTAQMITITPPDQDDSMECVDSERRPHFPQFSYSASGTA

Compound	IC50
C=Cc1ccc2nc(-c3cccnc3N)n(-c3ccc(CN4CCC(Nc5ccnc(C#N)n5)CC4)cc3)c2n1 [Example 454, 4-((1-(4-(2-(2-Aminopyridin-3-yl)-5-vinyl-3H-imidazo[4,5-b]pyridin-3-yl)benzyl)piperidin-4-yl)amino)pyrimidine-2-carbonitrile]	< 15 nM
[2H]C([2H])([2H])N(c1ccnc(C#N)n1)C1CCN(Cc2ccc(-n3c(-c4cccnc4N)nc4cc(C)c(C)nc43)cc2)CC1 [Example 455, 4-((1-(4-(2-(2-Aminopyridin-3-yl)-5,6-dimethyl-3H-imidazo[4,5-b]pyridin-3-yl)benzyl)piperidin-4-yl)(methyl-d3)amino)pyrimidine-2-carbonitrile]	< 15 nM
N#Cc1nccc(NC2CCN(Cc3ccc(-n4c(-c5cccnc5N)nc5ccc(-c6ccc(F)cn6)nc54)cc3)CC2)n1 [Example 456, 4-((1-(4-(2-(2-Aminopyridin-3-yl)-5-(5-fluoropyridin-2-yl)-3H-imidazo[4,5-b]pyridin-3-yl)benzyl)piperidin-4-yl)amino)pyrimidine-2-carbonitrile]	< 15 nM
CNc1ccc2nc(-c3cccnc3N)n(-c3ccc(CN4CCC(Nc5ccnc(C#N)n5)CC4)cc3)c2n1 [Example 457, 4-((1-(4-(2-(2-Aminopyridin-3-yl)-5-(methylamino)-3H-imidazo[4,5-b]pyridin-3-yl)benzyl)piperidin-4-yl)amino)pyrimidine-2-carbonitrile]	15 to 60 nM
[2H]C([2H])([2H])N(c1ccc2nc(-c3cccnc3N)n(-c3ccc(CN4CCC(Nc5ccnc(C#N)n5)CC4)cc3)c2n1)C([2H])([2H])[2H] [Example 458, 4-((1-(4-(2-(2-Aminopyridin-3-yl)-5-(bis(methyl-d3)amino)-3H-imidazo[4,5-b]pyridin-3-yl)benzyl)piperidin-4-yl)amino)pyrimidine-2-carbonitrile]	< 15 nM
[2H]C([2H])([2H])Nc1ccc2nc(-c3cccnc3N)n(-c3ccc(CN4CCC(Nc5ccnc(C#N)n5)CC4)cc3)c2n1 [Example 459, 4-((1-(4-(2-(2-Aminopyridin-3-yl)-5-((methyl-d3)amino)-3H-imidazo[4,5-b]pyridin-3-yl)benzyl)piperidin-4-yl)amino)pyrimidine-2-carbonitrile]	< 15 nM
N#Cc1nccc(NC2CCN(Cc3ccc(-n4c(-c5cccnc5N)nc5ccc(N6CCC6)nc54)cc3)CC2)n1 [Example 460, 4-((1-(4-(2-(2-Aminopyridin-3-yl)-5-(azetidin-1-yl)-3H-imidazo[4,5-b]pyridin-3-yl)benzyl)piperidin-4-yl)amino)pyrimidine-2-carbonitrile]	< 15 nM
N#Cc1nccc(NC2CCN(Cc3ccc(-n4c(-c5cccnc5N)nc5ccc(-c6cnoc6)nc54)cc3)CC2)n1 [Example 461, 4-((1-(4-(2-(2-Aminopyridin-3-yl)-5-(isoxazol-4-yl)-3H-imidazo[4,5-b]pyridin-3-yl)benzyl)piperidin-4-yl)amino)pyrimidine-2-carbonitrile]	< 15 nM
N#Cc1nccc(NC2CCN(Cc3ccc(-n4c(-c5cccnc5N)nc5ccc(-c6cnco6)nc54)cc3)CC2)n1 [Example 462, 4-((1-(4-(2-(2-Aminopyridin-3-yl)-5-(oxazol-5-yl)-3H-imidazo[4,5-b]pyridin-3-yl)benzyl)piperidin-4-yl)amino)pyrimidine-2-carbonitrile]	< 15 nM
Cc1oncc1-c1ccc2nc(-c3cccnc3N)n(-c3ccc(CN4CCC(Nc5ccnc(C#N)n5)CC4)cc3)c2n1 [Example 463, 4-((1-(4-(2-(2-Aminopyridin-3-yl)-5-(5-methylisoxazol-4-yl)-3H-imidazo[4,5-b]pyridin-3-yl)benzyl)piperidin-4-yl)amino)pyrimidine-2-carbonitrile]	< 15 nM
Cc1nocc1-c1ccc2nc(-c3cccnc3N)n(-c3ccc(CN4CCC(Nc5ccnc(C#N)n5)CC4)cc3)c2n1 [Example 464, 4-((1-(4-(2-(2-Aminopyridin-3-yl)-5-(3-methylisoxazol-4-yl)-3H-imidazo[4,5-b]pyridin-3-yl)benzyl)piperidin-4-yl)amino)pyrimidine-2-carbonitrile]	< 15 nM
Cc1cc(-c2ccc3nc(-c4cccnc4N)n(-c4ccc(CN5CCC(Nc6ccnc(C#N)n6)CC5)cc4)c3n2)[nH]n1 [Example 465, 4-((1-(4-(2-(2-Aminopyridin-3-yl)-5-(3-methyl-1H-pyrazol-5-yl)-3H-imidazo[4,5-b]pyridin-3-yl)benzyl)piperidin-4-yl)amino)pyrimidine-2-carbonitrile]	< 15 nM
CCn1cc(-c2ccc3nc(-c4cccnc4N)n(-c4ccc(CN5CCC(Nc6ccnc(C#N)n6)CC5)cc4)c3n2)cn1 [Example 466, 4-((1-(4-(2-(2-Aminopyridin-3-yl)-5-(1-ethyl-1H-pyrazol-4-yl)-3H-imidazo[4,5-b]pyridin-3-yl)benzyl)piperidin-4-yl)amino)pyrimidine-2-carbonitrile]	< 15 nM
Cn1nccc1-c1ccc2nc(-c3cccnc3N)n(-c3ccc(CN4CCC(Nc5ccnc(C#N)n5)CC4)cc3)c2n1 [Example 467, 4-((1-(4-(2-(2-Aminopyridin-3-yl)-5-(1-methyl-1H-pyrazol-5-yl)-3H-imidazo[4,5-b]pyridin-3-yl)benzyl)piperidin-4-yl)amino)pyrimidine-2-carbonitrile]	< 15 nM
N#Cc1nccc(NC2CCN(Cc3ccc(-n4c(-c5cccnc5N)nc5ccc(-c6cccc(N7CCCC7=O)c6)nc54)cc3)CC2)n1 [Example 468, 4-((1-(4-(2-(2-Aminopyridin-3-yl)-5-(3-(2-oxopyrrolidin-1-yl)phenyl)-3H-imidazo[4,5-b]pyridin-3-yl)benzyl)piperidin-4-yl)amino)pyrimidine-2-carbonitrile]	< 15 nM
COc1cc(F)ccc1-c1ccc2nc(-c3cccnc3N)n(-c3ccc(CN4CCC(Nc5ccnc(C#N)n5)CC4)cc3)c2n1 [Example 469, 4-((1-(4-(2-(2-Aminopyridin-3-yl)-5-(4-fluoro-2-methoxyphenyl)-3H-imidazo[4,5-b]pyridin-3-yl)benzyl)piperidin-4-yl)amino)pyrimidine-2-carbonitrile]	< 15 nM
N#Cc1nccc(NC2CCN(Cc3ccc(-n4c(-c5cccnc5N)nc5ccc(-c6ccccc6C(F)(F)F)nc54)cc3)CC2)n1 [Example 470, 4-((1-(4-(2-(2-Aminopyridin-3-yl)-5-(2-(trifluoromethyl)phenyl)-3H-imidazo[4,5-b]pyridin-3-yl)benzyl)piperidin-4-yl)amino)pyrimidine-2-carbonitrile]	60 to 600 nM
N#Cc1nccc(NC2CCN(Cc3ccc(-n4c(-c5cccnc5N)nc5ccc(-c6ccc(C(F)(F)F)cc6)nc54)cc3)CC2)n1 [Example 471, 4-((1-(4-(2-(2-Aminopyridin-3-yl)-5-(4-(trifluoromethyl)phenyl)-3H-imidazo[4,5-b]pyridin-3-yl)benzyl)piperidin-4-yl)amino)pyrimidine-2-carbonitrile]	15 to 60 nM
Cn1ncc(-c2ccc3nc(-c4cccnc4N)n(-c4ccc(CN5CCC(Nc6ccnc(C#N)n6)CC5)cc4)c3n2)n1 [Example 472, 4-((1-(4-(2-(2-Aminopyridin-3-yl)-5-(2-methyl-2H-1,2,3-triazol-4-yl)-3H-imidazo[4,5-b]pyridin-3-yl)benzyl)piperidin-4-yl)amino)pyrimidine-2-carbonitrile]	< 15 nM
